Test results reported in ChEMBL document CHEMBL1201862, “PubChem BioAssay data set” (2004).
The source made the active and inactive calls.

Tests used:
[1] = Luminescence Cell-Based Dose Confirmation HTS to Identify Activators of 5'UTR Stem-Loop Driven Alpha-Synuclein mRNA Translation in H4 Neuroglioblastoma Cells. [Related pubchem assays: 1829 (Project Summary), 1814 (Primary HTS)]; format: functional
[2] = Luminescence Cell-Based Dose Response HTS to Identify Activators of Luciferase Translation or Activity in H4 […] Cells. [Related pubchem assays: 1829 (Project Summary), 1814 (Primary HTS)]; format: functional
[3] = A Cell Based Secondary Assay To Explore Cytotoxicity of Compounds that Sensitize Mycobacterium Tuberculosis to Beta-Lactam Antibiotics.; format: functional
H4 = experiment: Luminescence Cell-Based Dose Response HTS to Identify Activators of 5'UTR Stem-Loop Driven Prion Protein mRNA Translation in H4 Neuroglioblastoma Cells. [Related pubchem assays: 1829 (Project Summary), 1814 (Primary HTS)]; format: functional; settings: Homo sapiens
Cytochrome P450 2C19 = Cytochrome P450 2C19 (Homo sapiens, UniProt P33261); experiment: Cytochrome panel assay with activity outcomes. Panel member name: p450-cyp2c19 Compounds with AC50 equal or less than 10 uM are considered active; format: functional; settings: read-out: AC50
Cytochrome P450 1A2 = biological target: T1, Cytochrome P450 1A2 (Homo sapiens, UniProt P05177);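 also: PubChem cytochrome P450 panel assay, CYP1A2 panel member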
T1 sequence (P05177 whole entry): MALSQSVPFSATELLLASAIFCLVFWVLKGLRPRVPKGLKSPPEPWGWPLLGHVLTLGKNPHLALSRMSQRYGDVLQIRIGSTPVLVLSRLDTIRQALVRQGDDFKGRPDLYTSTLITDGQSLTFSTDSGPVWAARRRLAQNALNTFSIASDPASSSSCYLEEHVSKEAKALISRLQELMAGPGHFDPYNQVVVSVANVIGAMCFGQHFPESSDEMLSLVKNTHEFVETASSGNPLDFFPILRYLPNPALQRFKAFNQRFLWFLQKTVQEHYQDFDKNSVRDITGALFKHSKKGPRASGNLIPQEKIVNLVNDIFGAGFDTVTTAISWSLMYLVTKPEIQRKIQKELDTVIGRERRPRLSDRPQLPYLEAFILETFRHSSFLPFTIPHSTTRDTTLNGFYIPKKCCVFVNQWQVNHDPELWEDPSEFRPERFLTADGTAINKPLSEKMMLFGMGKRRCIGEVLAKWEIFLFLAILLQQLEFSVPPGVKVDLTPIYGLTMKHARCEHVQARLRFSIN

[4] = biological target: T2, Heat shock factor protein 1 (Mus musculus, UniProt P38532); experiment: decrease of HSF1-responsive luciferase luminescence – cell-based, NIH3T3, dose retest, confirmation (AID 2382); format: functional;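 also: NIH3T3 fibroblasts with HSF1-driven luciferase reporter stressed by proteasome inhibitor MG132; luminescence from HSF1-driven luciferase expression after 8 hours of MG132 stress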
T2 sequence (P38532 whole entry): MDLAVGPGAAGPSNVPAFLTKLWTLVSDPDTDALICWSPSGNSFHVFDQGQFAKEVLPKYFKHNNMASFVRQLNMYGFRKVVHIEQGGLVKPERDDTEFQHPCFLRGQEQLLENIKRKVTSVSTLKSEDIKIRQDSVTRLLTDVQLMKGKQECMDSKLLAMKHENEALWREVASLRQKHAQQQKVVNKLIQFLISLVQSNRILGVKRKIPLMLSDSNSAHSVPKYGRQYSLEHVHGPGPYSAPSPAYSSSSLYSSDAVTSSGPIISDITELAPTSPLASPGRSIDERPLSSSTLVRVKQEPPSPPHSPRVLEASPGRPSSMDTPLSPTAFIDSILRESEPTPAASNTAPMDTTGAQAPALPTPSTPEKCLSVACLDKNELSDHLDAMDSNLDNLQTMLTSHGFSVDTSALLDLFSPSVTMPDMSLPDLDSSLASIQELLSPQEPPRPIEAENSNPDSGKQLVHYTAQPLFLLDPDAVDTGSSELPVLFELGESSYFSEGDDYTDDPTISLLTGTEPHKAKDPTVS

X-box-binding protein 1 = X-box-binding protein 1 (Homo sapiens, UniProt P17861); format: functional, Cricetulus griseus;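 also: confirmatory dose-response counter-screen serving a CHOP assay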
[5] = tested on: Streptococcus sp. 'group A'; experiment: Streptococcus pyogenes SK(-)GAS viability under kanamycin – luminescence, BacTiterGlo, confirmation, counter-screen for streptokinase expression inhibitor project, dose response (AID 1900); format: functional, organism-based
Streptokinase A = biological target: T3, Streptokinase A (Streptococcus pyogenes serotype M1, UniProt P10520); experiment: viability-normalized secreted streptokinase activity reduction – plasminogen activation absorbance, OD405, dose response (AID 1914); format: functional, Streptococcus pyogenes M1 GAS;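 also: secreted streptokinase activity via plasminogen activation per viability signal from cell pellet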
T3 sequence (P10520 whole entry): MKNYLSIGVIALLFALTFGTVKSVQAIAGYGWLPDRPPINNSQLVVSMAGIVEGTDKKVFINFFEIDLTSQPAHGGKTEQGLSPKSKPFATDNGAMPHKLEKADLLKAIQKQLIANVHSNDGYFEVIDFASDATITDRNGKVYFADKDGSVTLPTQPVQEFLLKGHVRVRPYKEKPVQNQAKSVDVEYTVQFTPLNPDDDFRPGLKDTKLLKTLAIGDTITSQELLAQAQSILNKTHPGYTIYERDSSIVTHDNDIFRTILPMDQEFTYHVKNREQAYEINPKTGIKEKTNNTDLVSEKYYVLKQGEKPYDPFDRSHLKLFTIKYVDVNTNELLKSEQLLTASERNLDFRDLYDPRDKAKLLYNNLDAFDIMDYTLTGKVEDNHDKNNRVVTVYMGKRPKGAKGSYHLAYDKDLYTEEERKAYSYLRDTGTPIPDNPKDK

Streptococcus = experiment: GAS UMAA2166 growth inhibition – luminescence, BacTiterGlo, counter-screen for streptokinase expression inhibitor project, dose response (AID 1915); format: functional, organism-based;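 also: potency for reduction of bacterial viability or growth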
Mu-type opioid receptor = Mu-type opioid receptor (Homo sapiens, UniProt P35372); format: functional, cell-based;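 also: U2OS cells with beta-arrestin recruitment to OPRM1 by beta-gal complementation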
[6] = biological target: 5-hydroxytryptamine receptor 2A (Mus musculus, UniProt P35363); format: functional, cell-based;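 also: CHO-K1 cells with tagged receptor and beta-arrestin; agonist potency measured as compound-induced activation of the receptor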
[7] = biological target: Eukaryotic translation initiation factor 4E (Mus musculus, UniProt P63073); experiment: blockers of eIF4G binding by eIF4E – biochemical, TR-FRET, dose response (AID 855); format: functional;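 also: potency for disrupting eIF4E binding to eIF4GI seen as loss of FRET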
Aspartyl aminopeptidase = Aspartyl aminopeptidase (Plasmodium falciparum 3D7, UniProt Q8I2J3)
Procathepsin L = Procathepsin L (Homo sapiens, UniProt P07711)
Procathepsin L, sequence (P07711 whole entry): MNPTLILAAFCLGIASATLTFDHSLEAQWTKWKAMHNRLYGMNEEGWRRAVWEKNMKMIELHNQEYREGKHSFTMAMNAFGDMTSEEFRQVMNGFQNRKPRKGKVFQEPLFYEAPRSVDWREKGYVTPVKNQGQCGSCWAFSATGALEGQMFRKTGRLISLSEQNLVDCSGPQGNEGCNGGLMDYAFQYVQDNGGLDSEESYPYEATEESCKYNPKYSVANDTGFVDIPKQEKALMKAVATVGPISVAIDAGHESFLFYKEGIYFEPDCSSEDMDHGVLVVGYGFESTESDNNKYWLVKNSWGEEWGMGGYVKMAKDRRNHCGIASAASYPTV

X-box-binding protein 1, sequence (P17861 whole entry): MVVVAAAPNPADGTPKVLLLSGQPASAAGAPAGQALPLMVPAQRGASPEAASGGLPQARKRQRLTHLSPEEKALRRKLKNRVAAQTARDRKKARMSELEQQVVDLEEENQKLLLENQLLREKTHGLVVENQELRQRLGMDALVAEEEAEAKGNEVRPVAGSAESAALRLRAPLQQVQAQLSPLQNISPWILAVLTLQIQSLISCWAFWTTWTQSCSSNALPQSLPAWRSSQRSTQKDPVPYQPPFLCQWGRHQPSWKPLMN
Mu-type opioid receptor, sequence (P35372 whole entry): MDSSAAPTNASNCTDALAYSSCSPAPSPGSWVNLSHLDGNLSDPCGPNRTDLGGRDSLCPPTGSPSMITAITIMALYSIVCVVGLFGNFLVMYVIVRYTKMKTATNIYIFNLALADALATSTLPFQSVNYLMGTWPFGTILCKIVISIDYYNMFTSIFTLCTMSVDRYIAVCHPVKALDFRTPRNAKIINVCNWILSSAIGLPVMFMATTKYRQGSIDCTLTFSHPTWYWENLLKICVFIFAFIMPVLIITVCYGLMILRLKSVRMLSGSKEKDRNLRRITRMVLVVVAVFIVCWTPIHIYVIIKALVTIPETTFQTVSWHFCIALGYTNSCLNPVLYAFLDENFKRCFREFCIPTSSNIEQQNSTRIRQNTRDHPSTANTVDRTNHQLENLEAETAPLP
Eukaryotic translation initiation factor 4E, sequence (P63073 whole entry): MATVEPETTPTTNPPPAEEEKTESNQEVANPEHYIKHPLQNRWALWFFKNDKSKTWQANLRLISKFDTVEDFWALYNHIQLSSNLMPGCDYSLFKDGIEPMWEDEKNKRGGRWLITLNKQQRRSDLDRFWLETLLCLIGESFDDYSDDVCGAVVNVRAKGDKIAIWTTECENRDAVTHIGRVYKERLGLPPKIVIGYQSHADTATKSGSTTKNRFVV
Aspartyl aminopeptidase, sequence (Q8I2J3 whole entry): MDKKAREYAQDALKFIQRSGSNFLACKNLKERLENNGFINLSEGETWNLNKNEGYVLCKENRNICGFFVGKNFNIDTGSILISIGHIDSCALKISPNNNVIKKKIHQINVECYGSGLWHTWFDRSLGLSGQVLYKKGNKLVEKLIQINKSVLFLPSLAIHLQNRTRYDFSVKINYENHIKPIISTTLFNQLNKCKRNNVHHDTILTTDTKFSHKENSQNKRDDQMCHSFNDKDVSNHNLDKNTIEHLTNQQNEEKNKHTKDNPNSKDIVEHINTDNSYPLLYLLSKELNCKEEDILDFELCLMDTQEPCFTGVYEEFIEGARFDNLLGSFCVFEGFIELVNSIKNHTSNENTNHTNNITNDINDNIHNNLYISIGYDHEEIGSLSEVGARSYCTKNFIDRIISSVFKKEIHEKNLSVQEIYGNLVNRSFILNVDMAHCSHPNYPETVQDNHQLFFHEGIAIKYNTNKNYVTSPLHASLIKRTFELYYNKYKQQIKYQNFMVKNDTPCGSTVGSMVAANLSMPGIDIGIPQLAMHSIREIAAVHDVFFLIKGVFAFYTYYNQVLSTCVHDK
Cytochrome P450 2C19, sequence (P33261 whole entry): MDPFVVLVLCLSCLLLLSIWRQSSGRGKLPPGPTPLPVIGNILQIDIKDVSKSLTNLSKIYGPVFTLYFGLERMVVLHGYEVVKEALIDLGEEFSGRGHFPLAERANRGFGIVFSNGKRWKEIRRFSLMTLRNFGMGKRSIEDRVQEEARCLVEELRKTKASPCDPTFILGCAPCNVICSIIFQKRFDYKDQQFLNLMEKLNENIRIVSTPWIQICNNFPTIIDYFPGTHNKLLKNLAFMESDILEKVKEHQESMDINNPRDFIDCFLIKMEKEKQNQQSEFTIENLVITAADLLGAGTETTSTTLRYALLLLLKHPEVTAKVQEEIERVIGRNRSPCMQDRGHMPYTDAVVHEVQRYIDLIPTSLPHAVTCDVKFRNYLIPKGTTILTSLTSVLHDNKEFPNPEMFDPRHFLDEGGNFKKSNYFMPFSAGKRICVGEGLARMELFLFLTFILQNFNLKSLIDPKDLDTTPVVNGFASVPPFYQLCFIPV
5-hydroxytryptamine receptor 2A, sequence (P35363 whole entry): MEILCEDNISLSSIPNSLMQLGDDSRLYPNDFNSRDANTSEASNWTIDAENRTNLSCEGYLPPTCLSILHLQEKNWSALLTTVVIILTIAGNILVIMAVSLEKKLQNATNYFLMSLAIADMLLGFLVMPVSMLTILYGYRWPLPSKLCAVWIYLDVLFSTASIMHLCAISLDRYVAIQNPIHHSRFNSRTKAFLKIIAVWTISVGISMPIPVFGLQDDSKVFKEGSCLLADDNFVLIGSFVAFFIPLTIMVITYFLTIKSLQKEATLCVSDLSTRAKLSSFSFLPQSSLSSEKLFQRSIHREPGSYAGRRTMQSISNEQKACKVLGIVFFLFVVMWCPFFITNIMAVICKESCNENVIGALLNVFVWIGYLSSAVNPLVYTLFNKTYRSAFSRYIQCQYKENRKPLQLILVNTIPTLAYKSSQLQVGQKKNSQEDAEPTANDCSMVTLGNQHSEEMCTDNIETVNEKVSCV

SMILES: O=C(Oc1oc(-c2ccco2)nc1/C=N/c1ccc(Cl)cc1)c1ccco1
- EC50 [1]: 14.3 µM (active)
- EC50 [2]: 21.7 µM (active)
- CC50 [3]: > 40 µM (active)
- EC50 (H4): 31.7 µM (active)
- AC50 (Cytochrome P450 2C19): 14.1 µM (inconclusive)
- AC50 (Cytochrome P450 1A2): 15.8 µM (inconclusive)

SMILES: Cc1cc(C)c2c(c1)/C(=N/NS(=O)(=O)c1ccc(Br)cc1)CCC2
- EC50 [4]: > 195 µM (not active)
- Absolute IC50 (XBP1) (X-box-binding protein 1): 10 µM

SMILES: CS(=O)(=O)N(Cc1ccccc1)c1ccc(C(=O)N2CCN(c3cccc(Cl)c3)CC2)cc1
- CC50 [3]: > 40 µM (active)

SMILES: Cc1ccc(Nc2nc(N)nc(CN3CCN(c4ccccc4)CC3)n2)cc1Cl
- EC50 [5]: 8.53 µM (active)
- EC50 (Streptokinase A): > 150 µM (not active)
- EC50 (Streptococcus): 111 µM (active)
- Absolute IC50 (XBP1) (X-box-binding protein 1): 10 µM
- EC50 (Mu-type opioid receptor): 92.5 µM (inactive)
- EC50 [6]: 76.1 µM (inactive)

SMILES: C=CCn1c(N)cc(=O)nc1SCC(=O)Nc1cccc2ccccc12
- IC50 [7]: > 64 µM (inactive)

SMILES: O=C(Nc1ccc(Br)cc1Cl)Nn1cnnc1
- IC50 (Aspartyl aminopeptidase): 0.711 µM (active)
- IC50 (Procathepsin L): > 59.6 µM (not active)
